In US9944589B2, “Cycloproplyamine derivatives useful as inhibitors of histone demethylases KDM1A” (Istituto Europeo de Oncologia S.r.L., priority 2012, dated 2018):
Structures can show the parent of a compound that is named as a salt.

Each compound was assayed against T1, human recombinant KDM1A (LSD1)/CoRest (Homo sapiens, UniProt O60341) (assay: Assay of enzyme inhibition of KDM1A (LSD1), Amplex UltraRed/peroxidase coupled). Conditions: 15 min preincubation, 4.5 μM mono-methylated H3-K4 peptide, range classes, read-out: IC50 [μM], KDM1A inhibition assay.
T1 construct: made in house; host or cells: E. coli
Format: biochemical
Protocol: The experiments were performed using a mono-methylated H3-K4 peptide containing 21 amino acids (custom synthesis done by Thermo Scientific) as substrate and in a 50 mM TRIS, pH 8, 0.05 mg/ml BSA buffer.
The demethylase activity was estimated under aerobic conditions and at RT by measuring the release of H2O2 produced during the catalytic process by the Amplex® UltraRed detection system coupled with peroxidase assay. Briefly, a fixed amount of KDM1A/CoRest complex was incubated at RT for 15 minutes in the absence and/or the presence of various concentrations of inhibitor (e.g. from 0 to 100 μM, depending on the inhibitor strength) and of Amplex® UltraRed detection system coupled with peroxidase assay. The inhibitors were tested twice in duplicates at each concentration. […] The conversion of the Amplex® Ultra Red reagent to resorufin was monitored in continuous by fluorescence (excitation at 540 nm, emission at 590 nm) using a microplate reader (Infinite 200, Tecan). Arbitrary units were used to measure the level of H2O2 produced in the absence and/or in the presence of inhibition. The maximum demethylase activity of KDM1A/CoRest was obtained in the absence of inhibitors and corrected for background fluorescence in the absence of KDM1A/CoRest. The IC50 was calculated using GraphPad Software.

| Compound | IC50 [µM] |
| --- | --- |
| CC(C)[C@@]1(N)C[C@H]1c1ccccc1 (relative stereo) [Example A-7, trans-1-isopropyl-2-phenyl-cyclopropanamine hydrochloride] | 1 to 5 |
| CC[C@@]1(N)C[C@H]1c1ccc(F)cc1 (relative stereo) [Example A-16, trans-1-ethyl-2-(4-fluorophenyl)cyclopropanamine hydrochloride] | 1 to 5 |
| CC[C@@]1(N)C[C@H]1c1ccc(Cl)cc1 (relative stereo) [Example A-17, trans-1-ethyl-2-(4-chlorophenyl)cyclopropanamine; hydrochloride] | 0.1 to 1 |
| CC[C@@]1(N)C[C@H]1c1cccc(C(F)(F)F)c1 (relative stereo) [Example A-18, trans-1-ethyl-2-[3-(trifluoromethyl)phenyl]cyclo-propanamine hydrochloride] | 0.1 to 1 |
| CC[C@@]1(N)C[C@H]1c1ccc(C(F)(F)F)cc1 (relative stereo) [Example A-19, trans-1-ethyl-2-[4-(trifluoromethyl)phenyl]cyclo-propanamine hydrochloride] | 0.1 to 1 |
| CC[C@@]1(N)C[C@H]1c1cccc(OC)c1 (relative stereo) [Example A-23, trans-1-ethyl-2-[3-methoxyphenyl]cyclopro-panamine hydrochloride] | 0.1 to 1 |
| CC[C@@]1(N)C[C@H]1c1ccccc1F (relative stereo) [Example A-25, trans-1-ethyl-2-(2-fluorophenyl)cyclopropanamine hydrochloride] | 0.1 to 1 |
| CC[C@@]1(N)C[C@H]1c1ccccc1Cl (relative stereo) [Example A-26, trans-1-ethyl-2-(2-chlorophenyl)-cyclopropanamine hydrochloride] | 0.1 to 1 |
| CC[C@@]1(N)C[C@H]1c1ccccc1Br (relative stereo) [Example A-27, trans-1-ethyl-2-(2-bromophenyl)-cyclopropanamine hydrochloride] | 0.1 to 1 |
| CC[C@@]1(N)C[C@H]1c1ccc(NC(=O)c2cccc(-c3ccccc3)c2)cc1 (relative stereo) [Example A-35] | < 0.1 |
| CC[C@@]1(N)C[C@H]1c1ccc(NC(=O)Cc2ccccc2)cc1 (relative stereo) [Example A-39, N-[4-[(trans-2-amino-2-ethyl-cyclopropyl]phenyl]-2-phenyl-acetamide hydrochloride] | < 0.1 |
| CC[C@@]1(N)C[C@H]1c1cccc(N=[N+]=[N-])c1 (relative stereo) [Example A-49, trans-2-(3-Azidophenyl)-1-ethyl-cyclopropanamine hydrochloride] | < 0.1 |
| N[C@@]1(CCc2ccccc2)C[C@@H]1c1cccc(Br)c1 (relative stereo) [Example A-51, trans 2-(3-bromophenyl)-1-phenethyl-cyclopropanamine hydrochloride] | < 0.1 |
| N[C@]1(Cc2ccc3ccccc3c2)C[C@H]1c1ccc(F)cc1 (relative stereo) [Example A-54, trans-2-(4-fluorophenyl)-1-(2-naphthylmethyl)cyclo-propanamine hydrochloride] | 0.1 to 1 |
| N[C@]1(Cc2ccc3ccccc3c2)C[C@H]1c1ccc(Cl)cc1 (relative stereo) [Example A-55, trans-2-(4-chlorophenyl)-1-(2-naphthylmethyl)cyclo-propanamine hydrochloride] | 0.1 to 1 |
| N[C@]1(Cc2ccc3ccccc3c2)C[C@H]1c1cccc(Cl)c1 (relative stereo) [Example A-56, trans-2-(3-chlorophenyl)-1-(2-naphthylmethyl)cyclo-propanamine hydrochloride] | 0.1 to 1 |

Next, values leading:

| IC50 [µM] | Compound |
| --- | --- |
| 0.1 to 1 | N[C@]1(Cc2ccc3ccccc3c2)C[C@H]1c1cccc(Br)c1 (relative stereo) [Example A-57, trans-2-(3-bromophenyl)-1-(2-naphthylmethyl)cyclo-propanamine hydrochloride] |
| < 0.1 | N[C@]1(CCc2ccccc2)C[C@H]1c1ccc(Cl)cc1 (relative stereo) [Example A-58, trans-2-(4-chlorophenyl)-1-phenethyl-cyclopropanamine hydrochloride] |
| 0.1 to 1 | N[C@]1(CCc2ccccc2)C[C@H]1c1ccc(F)cc1 (relative stereo) [Example A-59, trans-2-(4-fluorophenyl)-1-phenethyl-cyclopropanamine hydrochloride] |
| 0.1 to 1 | N[C@]1(Cc2ccccc2)C[C@H]1c1ccc(F)cc1 (relative stereo) [Example A-60, trans-1-benzyl-2-(4-fluorophenyl)cyclo-propanamine] |
| 0.1 to 1 | N[C@]1(Cc2ccccc2)C[C@H]1c1ccc(Cl)cc1 (relative stereo) [Example A-61, trans-1-benzyl-2-(4-chlorophenyl)cyclo-propanamine hydrochloride] |
| 0.1 to 1 | N[C@]1(CCc2ccccc2)C[C@H]1c1ccc(Br)cc1 (relative stereo) [Example A-62, trans 2-(4-bromophenyl)-1-phenethyl-cyclopropanamine 2,2,2-trifluoroacetic acid] |
| < 0.1 | CC[C@@]1(N)C[C@H]1c1ccc(NC(=O)c2ccc(-c3ccccc3)c(NC3CCN(C)CC3)c2)cc1 (relative stereo) [Example A-66, N-[4-(trans-2-amino-2-ethyl-cyclopropyl)phenyl]-3-[(1-methyl-4-piperidyl)amino]-4-phenyl-benzamide dihydrochloride] |
| < 0.1 | CC[C@@]1(N)C[C@H]1c1ccc(NC(=O)Cc2ccc([N+](=O)[O-])cc2)cc1 (relative stereo) [Example A-69, N-[4-trans-[2-amino-2-ethyl-cyclopropyl]phenyl]-2-(4-nitrophenyl) acetamide hydrochloride] |
| 0.1 to 1 | CC[C@@]1(N)C[C@H]1c1cccc(NC(=O)c2ccccc2)c1 (relative stereo) [Example A-93, N-[3-[trans-2-amino-2-ethyl-cyclopropyl]phenyl] benzamide hydrochloride] |
| < 0.1 | CC[C@@]1(N)C[C@H]1c1ccc(NC(=O)Cc2cccc3ccccc23)c(F)c1 (relative stereo) [Example A-94, N-[4-[trans-2-amino-2-ethyl-cyclopropyl]-2-fluoro-phenyl]-2-(1-naphthyl) acetamide hydrochloride] |
| 0.1 to 1 | CC[C@@]1(N)C[C@H]1c1ccc(NC(=O)c2ccc(N3CCN(C)CC3)cc2)c(F)c1 (relative stereo) [Example A-96, N-[4-[trans-2-amino-2-ethyl-cyclopropyl]-2-fluoro-phenyl]-4-(4-methylpiperazin-1-yl)benzamide 2,2,2-trifluoroacetic acid] |
| < 0.1 | CC[C@@]1(N)C[C@H]1c1ccc(NC(=O)c2ccc(C3CCN(C)CC3)cc2)cc1 (relative stereo) [Example A-100, N-[4-[trans-2-amino-2-ethyl-cyclopropyl]phenyl]-4-(1-methyl-4-piperidyl)benzamide 2,2,2-trifluoroacetic acid] |
| < 0.1 | CC[C@@]1(N)C[C@H]1c1ccc(NC(=O)c2ccc(-c3ccncc3)cc2)cc1 (relative stereo) [Example A-102, N-[4-(trans-2-amino-2-ethyl-cyclopropyl]phenyl)-4-(4-pyridyl) benzamide dihydrochloride] |
| < 0.1 | N[C@]1(c2ccccc2)C[C@H]1c1ccc(NC(=O)c2cccc(Cl)c2)cc1 (relative stereo) [Example A-103, N-[4-(trans-2-amino-2-phenyl-cyclopropyl]phenyl]-3-chloro-benzamide hydrochloride] |
| < 0.1 | N[C@]1(c2ccccc2)C[C@H]1c1ccc(NC(=O)Cc2cccc3ccccc23)cc1 (relative stereo) [Example A-104, N-[4-(trans-2-amino-2-phenyl-cyclopropyl)phenyl]-2-(1-naphthyl) acetamide hydrochloride] |
| < 0.1 | N[C@]1(c2ccccc2)C[C@H]1c1ccc(NC(=O)Cc2ccccc2)cc1 (relative stereo) [Example A-105, N-[4-(trans-2-amino-2-phenyl-cyclopropyl)phenyl]-2-phenyl-acetamide hydrochloride] |
| < 0.1 | N[C@]1(c2ccccc2)C[C@H]1c1ccc(NC(=O)c2cccc(-c3ccccc3)c2)cc1 (relative stereo) [Example A-106, N-[4-(trans-2-amino-2-phenyl-cyclopropyl)phenyl]-3-phenyl-benzamide 2,2,2-trifluoroacetic acid] |

Same assay, conditions: IC50 [μM], KDM1A inhibition assay, 15 min preincubation, 4.5 μM mono-methylated H3-K4 peptide, range classes

| Compound | IC50 [µM] |
| --- | --- |
| CC[C@@]1(N)C[C@H]1c1cccc(F)c1 (relative stereo) [Example A-20, trans-1-ethyl-2-(3-fluorophenyl)cyclopropanamine hydrochloride] | < 0.1 |
| CC[C@@]1(N)C[C@H]1c1cccc(Cl)c1 (relative stereo) [Example A-21, trans-1-ethyl-2-(3-chlorophenyl)-cyclopropanamine hydrochloride] | < 0.1 |
| CC[C@@]1(N)C[C@H]1c1cccc(Br)c1 (relative stereo) [Example A-22, trans-1-ethyl-2-(3-bromophenyl)-cycloproanamine hydrochloride] | < 0.1 |
| CC[C@@]1(N)C[C@H]1c1ccc(Br)c(F)c1 (relative stereo) [Example A-50, trans-2-(4-bromo-3-fluoro-phenyl)-1-ethyl-cyclopropanamine hydrochloride] | < 0.1 |
